The values that follow come from PubChem BioAssay (NCI).

SMILES strings stand for the structures.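 Following 48 hours of exposure in 96-well plates, responses at five concentrations were used to interpolate endpoints linearly. GI50: concentration for 50% inhibition of growth. TGI: total growth inhibition.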

Holding throughout (assay): growth of human tumour cells (NCI), 48 h
In experiment [1] the test system is LOX IMVI melanoma.
Experiment [2] concerns TK-10 renal.
Experiment [3] deals with M14 melanoma.
Experiment [4] relates to HCC-2998 colon.
The test system of experiment [5] is SK-MEL-2 melanoma.
Experiment [6] deals with RPMI-8226 leukemia.
Experiment [7] has as its system OVCAR-4 ovarian.
For experiment [8], the system named is HL-60(TB) leukemia.
In experiment [9] the test system is MALME-3M melanoma.
Experiment [10] deals with CCRF-CEM leukemia.

On to `C/C1=C\C/C=C(\C)[C@H]2CC(CC/C(C)=C/CC1)[C@](C)(C=O)O2`, for which the GI50 was 22.2 µM in experiment [1]; more than 100 µM in experiment [2]; 51.9 µM in experiment [3]; 49.8 µM in experiment [4]; more than 100 µM in experiment [5]; 27.1 µM in [6]. For the same compound, the GI50 in experiment [7] is more than 100 µM; in [8], 25.6 µM. Further, the TGI was 48.5 µM in experiment [1]; more than 100 µM in experiment [2]; more than 100 µM in experiment [3]; more than 100 µM in experiment [4]; more than 100 µM in experiment [5]; 76.8 µM in experiment [6]. Moreover, the figures for the TGI in [7] and in [8] were more than 100 µM and 81.2 µM, respectively.
For the compound `CCc1c(O)c2c(c(O)c1C(C)=O)C(=O)c1c(cc(O)c(C(=O)O)c1C(=O)O)C2=O`, the TGI in [9], in experiment [1], in [2], in experiment [3], in experiment [4] and in experiment [5] was more than 100 µM in each case. Moreover, the TGI in experiment [6], in experiment [7] and in [10] was more than 100 µM throughout.
In the case of `O=C(O)c1cscc1Cc1cccs1`, the TGI in experiment [9], in [1], in [2], in experiment [3], in experiment [5] and in [6] was more than 100 µM each time. Further, the TGI in experiment [7], in experiment [8] and in experiment [10] was more than 100 µM throughout.
With `COc1ccc2c(c1)cn1c3ccc(O)cc3[nH]c(=O)c21`, the GI50 in [1] was 0.072 µM; in experiment [2], 0.881 µM; in [3], 0.0984 µM; in experiment [4], 0.667 µM; in [5], 0.215 µM; in experiment [6], 0.306 µM. Besides, the results for the GI50 in experiment [7], in [8] and in experiment [10] were 2.41 µM, 0.216 µM and 0.149 µM, respectively. Besides, the TGI in [1] was 1.96 µM; in [2] it was 2.49 µM; in experiment [3], 1.21 µM; in [4] it was 4.42 µM; in experiment [5], 2.08 µM; in experiment [6], 1.93 µM. The TGI in [7] stood at 13.4 µM; in [8] it was 1.2 µM; in experiment [10], 4.66 µM.
On to `OCC#Cc1ccccc1C#Cc1ccc(C#Cc2ccccc2C#CCO)s1`, for which the GI50 in experiment [1] is 20.4 µM; in experiment [2] it was 16.7 µM; in experiment [3] it was 23.3 µM; in experiment [4], 14.7 µM; in [5], 14.6 µM; in experiment [6], 22.2 µM. Also, the GI50 in experiment [7] is 26.4 µM; in experiment [8], 43.4 µM. Further, the TGI in experiment [1] is 53.6 µM; in experiment [2], 30.6 µM; in experiment [3], 49 µM; in [4], 28.8 µM; in experiment [5] it was 35.8 µM; in experiment [6], 49.1 µM. The TGI in experiment [7] and in [8] was more than 100 µM each time.
With `c1ccc2cc(Cn3c[n+](Cc4ccc5ccccc5c4)c4ccccc43)ccc2c1`, the GI50 was 1.64 µM in [5] and 1.19 µM in [7]. For the same compound, the TGI in experiment [5] is 3.14 µM; in experiment [7] it was 2.61 µM.
For `CCCCCCNc1nc(N2CCOCC2)c2[nH]c(NCCCCCC)nc2n1`, the GI50 in experiment [1] was 1.48 µM; in [2], 1.87 µM; in [3] it was 1.84 µM; in experiment [4], 1.7 µM; in [5], 1.89 µM; in experiment [6], 1.91 µM. In addition, the GI50 in [7] is 1.43 µM. The TGI in experiment [1] was 2.8 µM; in experiment [2], 3.45 µM; in experiment [3], 3.39 µM; in experiment [4], 3.07 µM; in [5], 3.51 µM; in experiment [6] it was 5.42 µM. The compound also returned a TGI in experiment [7] of 2.87 µM.
For `Cc1cc(C)c2c(SCc3ccc(Cl)cc3Cl)nc(N)nc2n1`, the TGI in experiment [9] was more than 100 µM; in experiment [1], more than 100 µM; in experiment [2], 47.5 µM; in [3], more than 100 µM; in experiment [5], more than 100 µM; in experiment [6], more than 100 µM. Further, the TGI in experiment [7], in experiment [8] and in experiment [10] was more than 100 µM each time.
For `COc1cc(Cl)c2c3c(c(C(=O)c4ccccc4)oc13)CCC2`, the TGI in [1], in experiment [2], in [3], in experiment [4], in [6] and in experiment [7] was more than 100 µM in each case. Also, the TGI in experiment [8] and in experiment [10] was more than 100 µM in each case.
`CO[C@@]12C[C@H]3[C@@H]([C@@H](O)[C@@H](OC(=O)/C=C/c4ccccc4)[C@@]4(O)C(C)(C)CCC[C@]34C)[C@@H](C)C1=CC(=O)O2`: the GI50 is 4.14 µM in experiment [1]; 6.15 µM in [2]; 18.2 µM in [3]; 27 µM in experiment [5]; 3.58 µM in experiment [6]; 5.03 µM in [7]. The GI50 in [8] is 11.1 µM. The TGI was 15.6 µM in experiment [1]; more than 100 µM in experiment [2]; more than 100 µM in [3]; more than 100 µM in experiment [5]; 20.8 µM in experiment [6]; 30.4 µM in [7]. In experiment [8], this compound showed a TGI of more than 100 µM.
As for `C1=C(c2ccccc2)SC=C(c2ccccc2)S1`, the TGI in experiment [9], in [1], in [2], in [3], in experiment [6] and in [7] was more than 100 µM throughout. In addition, the TGI in experiment [8] and in experiment [10] was more than 100 µM each time.
In the case of `C=C1CC2(CCCC3(CC(=C)C(=O)O3)C2(C)C)OC1=O` (centres undefined), the TGI in [9] was determined as 3.61 µM; in experiment [1] it was 3.77 µM; in [2], 6.31 µM; in experiment [3], 8.58 µM; in experiment [5], 27.7 µM; in experiment [6], 3.57 µM. Further, the TGI in experiment [7] was found to be 20.2 µM; in experiment [8] it was 5.65 µM; in experiment [10], 5.74 µM.
